Source: patent US20240043404A1 (AbbVie Inc., priority 2009, published 2024)
Like-named read-outs stand apart in the source and are kept apart here.

Test system: RS4;11 cells
Experiment: RS4;11 cell viability assay (CellTiter Glo);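 note: acute lymphoblastic leukemia line RS4,11, EC50 derived from percentage of viable cells after treatment relative to untreated controls, cell killing taken as a measure of Bcl-2 inhibition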
Type: cell-based, human
Settings: Homo sapiens, read-out: RS4
[1] = RS4-11, 48 h, 50,000 cells per well, 10% human serum, 48 hours, 11 EC50 Values
[2] = RS4-11, Table 5, direct comparison Z=N with corresponding analogs Z=C, 11 EC50

Procedure: The acute lymphoblastic leukemia (ALL) cell line RS4;11 was used as the primary human cell line to assess the cellular activity of Bcl-2 selective agents in vitro and their efficacy in vivo.
Cell cytotoxicity EC50 values were assessed using CellTiter Glo (Promega) according to the manufacturer's recommendations. The EC50 values were determined as a percentage of viable cells following treatment compared to the untreated control cells.

| EC50 [1] | EC50 [2] | EC50 (RS4-11, Table 4, selected compounds in U.S. Pat. Application No. 12/631404, 11 EC50) | SMILES |
| --- | --- | --- | --- |
| 0.007 µM |  |  | CC1(C)CCC(CN2CCN(c3ccc(C(=O)NS(=O)(=O)c4ccc(NCC5COCCO5)c([N+](=O)[O-])c4)c(Oc4cnc5[nH]ccc5c4)c3)CC2)=C(c2ccc(Cl)cc2)C1 (stereo not shown) [Example 25, 4-(4-{[2-(4-chlorophenyl)-4,4-dimethylcyclohex-1-en-1-yl]methyl}piperazin-1-yl)-N-({4-[(1,4-dioxan-2-ylmethyl)amino]-3-nitrophenyl}sulfonyl)-2-(1H-pyrrolo[2,3-b]pyridin-5-yloxy)benzamide] |
| 0.291 µM |  |  | CC1(C)CC(c2ccc(Cl)cc2)=C(CN2CCN(c3ccc(C(=O)NS(=O)(=O)c4cnc(OCC5CCOCC5)c(C#N)c4)c(Oc4cnc5[nH]ccc5c4)c3)CC2)CO1 [Example 35, 4-(4-{[4-(4-chlorophenyl)-6,6-dimethyl-5,6-dihydro-2H-pyran-3-yl]methyl}piperazin-1-yl)-N-{[5-cyano-6-(tetrahydro-2H-pyran-4-ylmethoxy)pyridin-3-yl]sulfonyl}-2-(1H-pyrrolo[2,3-b]pyridin-5-yloxy)benzamide] |
| 0.00152 µM |  |  | CC1(C)CCC(CN2CCN(c3ccc(C(=O)NS(=O)(=O)c4ccc(NCC5(F)CCOCC5)c([N+](=O)[O-])c4)c(Oc4cnc5[nH]ccc5c4)c3)CC2)=C(c2ccc(Cl)cc2)C1 [Example 138, 4-(4-{[2-(4-chlorophenyl)-4,4-dimethylcyclohex-1-en-1-yl]methyl}piperazin-1-yl)-N-[(4-{[(4-fluorotetrahydro-2H-pyran-4-yl)methyl]amino}-3-nitrophenyl)sulfonyl]-2-(1H-pyrrolo[2,3-b]pyridin-5-yloxy)benzamide] |
| 0.045 µM | 0.045 µM | 0.045 µM | CC1(C)CC(c2ccc(Cl)cc2)=C(CN2CCN(c3ccc(C(=O)NS(=O)(=O)c4ccc(NCC5CCOCC5)c([N+](=O)[O-])c4)c(Oc4ccc5[nH]ccc5c4)c3)CC2)CO1 [Example 23, 4-(4-{[4-(4-chlorophenyl)-6,6-dimethyl-5,6-dihydro-2H-pyran-3-yl]methyl}piperazin-1-yl)-2-(1H-indol-5-yloxy)-N-({3-nitro-4-[(tetrahydro-2H-pyran-4-ylmethyl)amino]phenyl}sulfonyl)benzamide] |
| 0.058 µM |  |  | CC1(C)CC(c2ccc(Cl)cc2)=C(CN2CCN(c3ccc(C(=O)NS(=O)(=O)c4cnc(OCC5CCOCC5)c(Cl)c4)c(Oc4cnc5[nH]ccc5c4)c3)CC2)CO1 [Example 41, 4-(4-{[4-(4-chlorophenyl)-6,6-dimethyl-5,6-dihydro-2H-pyran-3-yl]methyl}piperazin-1-yl)-N-{[5-chloro-6-(tetrahydro-2H-pyran-4-ylmethoxy)pyridin-3-yl]sulfonyl}-2-(1H-pyrrolo[2,3-b]pyridin-5-yloxy)benzamide] |
| 0.103 µM |  |  | CC1(C)CCC(CN2CCN(c3ccc(C(=O)NS(=O)(=O)c4ccc(N[C@@H]5CCOC5)c([N+](=O)[O-])c4)c(Oc4cnc5[nH]ccc5c4)c3)CC2)=C(c2ccc(Cl)cc2)C1 [Example 238, 4-(4-{[2-(4-chlorophenyl)-4,4-dimethylcyclohex-1-en-1-yl]methyl}piperazin-1-yl)-N-({3-nitro-4-[(3R)-tetrahydrofuran-3-ylamino]phenyl}sulfonyl)-2-(1H-pyrrolo[2,3-b]pyridin-5-yloxy)benzamide] |
| 0.307 µM |  |  | CO[C@H]1CC[C@@H](COc2ncc(S(=O)(=O)NC(=O)c3ccc(N4CCN(CC5=C(c6ccc(Cl)cc6)CC(C)(C)CC5)CC4)cc3Oc3cnc4[nH]ccc4c3)cc2Cl)CC1 [Example 211, Cis-N-({5-chloro-6-[(4-methoxycyclohexyl)methoxy]pyridin-3-yl}sulfonyl)-4-(4-{[2-(4-chlorophenyl)-4,4-dimethylcyclohex-1-en-1-yl]methyl}piperazin-1-yl)-2-(1H-pyrrolo[2,3-b]pyridin-5-yloxy)benzamide] |
| 0.125 µM |  |  | COCC(=O)N1CCC(COc2ccc(S(=O)(=O)NC(=O)c3ccc(N4CCN(CC5=C(c6ccc(Cl)cc6)CC(C)(C)CC5)CC4)cc3Oc3cnc4[nH]ccc4c3)cc2Cl)CC1 [Example 294, N-[(3-chloro-4-{[1-(methoxyacetyl)piperidin-4-yl]methoxy}phenyl)sulfonyl]-4-(4-{[2-(4-chlorophenyl)-4,4-dimethylcyclohex-1-en-1-yl]methyl}piperazin-1-yl)-2-(1H-pyrrolo[2,3-b]pyridin-5-yloxy)benzamide] |
| 0.351 µM |  |  | CCN(C)C(=O)N1CCOC(CNc2ncc(S(=O)(=O)NC(=O)c3ccc(N4CCN(CC5=C(c6ccc(Cl)cc6)CC(C)(C)CC5)CC4)cc3Oc3cnc4[nH]ccc4c3)cc2Cl)C1 (stereo not shown) [Example 336, 2-{[(3-chloro-5-{[4-(4-{[2-(4-chlorophenyl)-4,4-dimethylcyclohex-1-en-1-yl]methyl}piperazin-1-yl)-2-(1H-pyrrolo[2,3-b]pyridin-5-yloxy)benzoyl]sulfamoyl}pyridin-2-yl)amino]methyl}-N-ethyl-N-methylmorpholine-4-carboxamide] |

Continued, compound first:

| SMILES | EC50 [1] | EC50 [2] | EC50 (RS4-11, Table 4, selected compounds in U.S. Pat. Application No. 12/631404, 11 EC50) |
| --- | --- | --- | --- |
| COc1ccc(CNc2ccc(S(=O)(=O)NC(=O)c3ccc(N4CCN(CC5=C(c6ccc(Cl)cc6)CC(C)(C)CC5)CC4)cc3Oc3cnc4[nH]ccc4c3)cc2[N+](=O)[O-])cc1 [Example 174, 4-(4-{[2-(4-chlorophenyl)-4,4-dimethylcyclohex-1-en-1-yl]methyl}piperazin-1-yl)-N-({4-[(4-methoxybenzyl)amino]-3-nitrophenyl}sulfonyl)-2-(1H-pyrrolo[2,3-b]pyridin-5-yloxy)benzamide] | 0.126 µM |  |  |
| CC1(C)CCC(CN2CCN(c3ccc(C(=O)NS(=O)(=O)c4ccc(OCC5(F)CCN(C6CCOCC6)CC5)c([N+](=O)[O-])c4)c(Oc4cnc5[nH]ccc5c4)c3)CC2)=C(c2ccc(Cl)cc2)C1 [Example 192, 4-(4-{[2-(4-chlorophenyl)-4,4-dimethylcyclohex-1-en-1-yl]methyl}piperazin-1-yl)-N-({4-[(4-fluoro-1-tetrahydro-2H-pyran-4-ylpiperidin-4-yl)methoxy]-3-nitrophenyl}sulfonyl)-2-(1H-pyrrolo[2,3-b]pyridin-5-yloxy)benzamide] | 0.00241 µM |  |  |
| CC1(C)CCC(CN2CCN(c3ccc(C(=O)NS(=O)(=O)c4ccc(NC5CCN(CC(F)F)CC5)c([N+](=O)[O-])c4)c(Oc4cnc5[nH]ccc5c4)c3)CC2)=C(c2ccc(Cl)cc2)C1 [Example 97, 4-(4-{[2-(4-chlorophenyl)-4,4-dimethylcyclohex-1-en-1-yl]methyl}piperazin-1-yl)-N-[(4-{[1-(2,2-difluoroethyl)piperidin-4-yl]amino}-3-nitrophenyl)sulfonyl]-2-(1H-pyrrolo[2,3-b]pyridin-5-yloxy)benzamide] | 0.0556 µM |  |  |
| CC1(C)CCC(CN2CCN(c3ccc(C(=O)NS(=O)(=O)c4ccc(N[C@H]5CCN(C6CC6)C5)c([N+](=O)[O-])c4)c(Oc4cnc5[nH]ccc5c4)c3)CC2)=C(c2ccc(Cl)cc2)C1 [Example 142, 4-(4-{[2-(4-chlorophenyl)-4,4-dimethylcyclohex-1-en-1-yl]methyl}piperazin-1-yl)-N-[(4-{[(3S)-1-cyclopropylpyrrolidin-3-yl]amino}-3-nitrophenyl)sulfonyl]-2-(1H-pyrrolo[2,3-b]pyridin-5-yloxy)benzamide] | 0.345 µM |  |  |
| CC1(C)CCC(CN2CCN(c3ccc(C(=O)NS(=O)(=O)c4ccc(OC[C@@H]5CN(C6COC6)C[C@H]5CF)c([N+](=O)[O-])c4)c(Oc4cnc5[nH]ccc5c4)c3)CC2)=C(c2ccc(Cl)cc2)C1 (relative stereo) [Example 137, 4-(4-{[2-(4-chlorophenyl)-4,4-dimethylcyclohex-1-en-1-yl]methyl}piperazin-1-yl)-N-[(4-{[trans-4-(fluoromethyl)-1-oxetan-3-ylpyrrolidin-3-yl]methoxy}-3-nitrophenyl)sulfonyl]-2-(1H-pyrrolo[2,3-b]pyridin-5-yloxy)benzamide] | 0.0127 µM |  |  |
| CC1(C)CCC(CN2CCN(c3ccc(C(=O)NS(=O)(=O)c4ccc(NCC5CCOCC5)c(S(=O)(=O)C(F)(F)F)c4)c(Oc4ccc5[nH]ccc5c4)c3)CC2)=C(c2ccc(Cl)cc2)C1 [Example 94, 4-(4-{[2-(4-chlorophenyl)-4,4-dimethylcyclohex-1-en-1-yl]methyl}piperazin-1-yl)-2-(1H-indol-5-yloxy)-N-({4-[(tetrahydro-2H-pyran-4-ylmethyl)amino]-3-[(trifluoromethyl)sulfonyl]phenyl}sulfonyl)benzamide] | 1.69 µM | 1.69 µM |  |
| CC1(C)CCC(CN2CCN(c3ccc(C(=O)NS(=O)(=O)c4ccc(NC5CCN(C6CC6)CC5)c([N+](=O)[O-])c4)c(Oc4cnc5[nH]ccc5c4)c3)CC2)=C(c2ccc(Cl)cc2)C1 [Example 98, 4-(4-{[2-(4-chlorophenyl)-4,4-dimethylcyclohex-1-en-1-yl]methyl}piperazin-1-yl)-N-({4-[(1-cyclopropylpiperidin-4-yl)amino]-3-nitrophenyl}sulfonyl)-2-(1H-pyrrolo[2,3-b]pyridin-5-yloxy)benzamide] | 0.0229 µM |  |  |
| CN1CCN(Nc2ccc(S(=O)(=O)NC(=O)c3ccc(N4CCN(CC5=C(c6ccc(Cl)cc6)CC(C)(C)CC5)CC4)cc3Oc3cnc4[nH]ccc4c3)cc2[N+](=O)[O-])CC1 [Example 6, 4-(4-{[2-(4-chlorophenyl)-4,4-dimethylcyclohex-1-en-1-yl]methyl}piperazin-1-yl)-N-({4-[(4-methylpiperazin-1-yl)amino]-3-nitrophenyl}sulfonyl)-2-(1H-pyrrolo[2,3-b]pyridin-5-yloxy)benzamide] | 0.0349 µM | 0.035 µM |  |
| CC1(C)CCC(CN2CCN(c3ccc(C(=O)NS(=O)(=O)c4ccc(NCC5CN(C(CF)CF)CCO5)c([N+](=O)[O-])c4)c(Oc4cnc5[nH]ccc5c4)c3)CC2)=C(c2ccc(Cl)cc2)C1 (stereo not shown) [Example 252, 4-(4-{[2-(4-chlorophenyl)-4,4-dimethylcyclohex-1-en-1-yl]methyl}piperazin-1-yl)-N-{[4-({[4-(1,3-difluoropropan-2-yl)morpholin-2-yl]methyl}amino)-3-nitrophenyl]sulfonyl}-2-(1H-pyrrolo[2,3-b]pyridin-5-yloxy)benzamide] | 0.00347 µM |  |  |
